# From US8003649B2 (AstraZeneca AB, priority 2007, dated 2011)
# Molecular target: T1, Androgen Receptor (AR) (Homo sapiens, UniProt P10275, T878A)
# T1 construct: cell based immuno-fluorescence assay using the LNCaP prostate epithelial cell line; endogenous in cells; host or cells: LNCaP clone FGC (ATCC CRL-1740)
# T1 sequence (P10275 1-920 T878A): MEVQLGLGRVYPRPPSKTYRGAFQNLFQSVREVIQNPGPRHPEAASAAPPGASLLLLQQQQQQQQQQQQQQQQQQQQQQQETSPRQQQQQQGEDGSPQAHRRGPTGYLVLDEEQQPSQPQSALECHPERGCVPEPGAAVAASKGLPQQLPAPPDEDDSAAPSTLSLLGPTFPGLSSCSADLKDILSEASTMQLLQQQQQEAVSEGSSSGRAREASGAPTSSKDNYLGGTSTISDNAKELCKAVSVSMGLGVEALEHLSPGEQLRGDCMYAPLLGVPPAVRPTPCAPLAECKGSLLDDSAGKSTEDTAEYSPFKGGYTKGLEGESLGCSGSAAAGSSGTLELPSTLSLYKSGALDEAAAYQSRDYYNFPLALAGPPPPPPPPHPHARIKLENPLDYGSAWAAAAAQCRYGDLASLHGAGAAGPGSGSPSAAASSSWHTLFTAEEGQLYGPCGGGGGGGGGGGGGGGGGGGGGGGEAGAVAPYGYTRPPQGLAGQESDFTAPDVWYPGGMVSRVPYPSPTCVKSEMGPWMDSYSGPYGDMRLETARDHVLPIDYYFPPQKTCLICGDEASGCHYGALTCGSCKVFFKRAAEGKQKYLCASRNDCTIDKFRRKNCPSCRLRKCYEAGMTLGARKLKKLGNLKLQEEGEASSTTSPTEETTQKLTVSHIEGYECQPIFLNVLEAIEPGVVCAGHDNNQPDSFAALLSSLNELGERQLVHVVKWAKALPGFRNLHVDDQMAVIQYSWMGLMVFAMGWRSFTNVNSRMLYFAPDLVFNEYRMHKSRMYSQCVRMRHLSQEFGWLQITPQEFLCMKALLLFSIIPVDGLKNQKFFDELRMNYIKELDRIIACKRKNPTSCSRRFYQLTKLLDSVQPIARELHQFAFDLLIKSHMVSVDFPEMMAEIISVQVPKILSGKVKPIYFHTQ
# Test: LNCaP Androgen Receptor Down-regulation Cell Assay (immunofluorescence end point)
# Format: cell-based
# Details: LNCaP prostate carcinoma cells, compound incubation 20-22 hours, 50% reduction of the AR signal; read-out: Androgen Receptor Down-regulation Assay (a) IC50/μM
# How it was run: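 AR loss reported as IC50 from curve fits of fluorescence dose-response data, with AR immunostained and read by laser-scanning cytometry. Compound exposure was 20-22 h at 37° C in LNCaP cells grown in 5% charcoal-stripped FBS and plated overnight beforehand.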
row,SMILES,DC50 [µM]
1,"Cn1cncc1CN1CCN(c2ccc3nnc(C(F)(F)F)n3n2)CC1 [Example 89, 6-[4-[(3-methylimidazol-4-yl)methyl]piperazin-1-yl]-3-(trifluoromethyl)-[1,2,4]triazolo[4,3-b]pyridazine]",23
2,"FC(F)(F)c1nnc2ccc(N3CCN(Cc4ccoc4)CC3)nn12 [Example 90, 6-[4-(furan-3-ylmethyl)piperazin-1-yl]-3-(trifluoromethyl)-[1,2,4]triazolo[4,3-b]pyridazine]",3.2
3,"FC(F)(F)c1nnc2ccc(N3CCN(Cc4c[nH]c5ccccc45)CC3)nn12 [Example 94, 6-[4-(1H-indol-3-ylmethyl)piperazin-1-yl]-3-(trifluoromethyl)-[1,2,4]triazolo[4,3-b]pyridazine]",0.93
4,"FC(F)(F)c1cccc(CN2CCN(c3ccc4nnc(C(F)(F)F)n4n3)CC2)c1 [Example 95, 3-(trifluoromethyl)-6-[4-[[3-(trifluoromethyl)phenyl]methyl]piperazin-1-yl]-[1,2,4]triazolo[4,3-b]pyridazine]",0.67
5,"Fc1cccc(CN2CCN(c3ccc4nnc(C(F)(F)F)n4n3)CC2)c1 [Example 96, 6-[4-[(3-fluorophenyl)methyl]piperazin-1-yl]-3-(trifluoromethyl)-[1,2,4]triazolo[4,3-b]pyridazine]",> 1.3
6,"FC(F)(F)c1nnc2ccc(N3CCN(Cc4cccc(Cl)c4)CC3)nn12 [Example 97, 6-[4-[(3-chlorophenyl)methyl]piperazin-1-yl]-3-(trifluoromethyl)-[1,2,4]triazolo[4,3-b]pyridazine]",0.36
7,"Cc1cc(CN2CCN(c3ccc4nnc(C(F)(F)F)n4n3)CC2)oc1C [Example 98, 6-[4-[(4,5-dimethylfuran-2-yl)methyl]piperazin-1-yl]-3-(trifluoromethyl)-[1,2,4]triazolo[4,3-b]pyridazine]",2.3
8,"FC(F)(F)c1nnc2ccc(N3CCN(CC4CCCCC4)CC3)nn12 [Example 99, 6-[4-(cyclohexylmethyl)piperazin-1-yl]-3-(trifluoromethyl)-[1,2,4]triazolo[4,3-b]pyridazine]",2.9
9,"FC1(F)Oc2ccc(CN3CCN(c4ccc5nnc(C(F)(F)F)n5n4)CC3)cc2O1 [Example 100, 6-[4-[(2,2-difluoro-1,3-benzodioxol-5-yl)methyl]piperazin-1-yl]-3-(trifluoromethyl)-[1,2,4]triazolo[4,3-b]pyridazine]",1.8
10,"FC(F)(F)c1nnc2ccc(N3CCN(Cc4cc5ccccc5[nH]4)CC3)nn12 [Example 101, 6-[4-(1H-indol-2-ylmethyl)piperazin-1-yl]-3-(trifluoromethyl)-[1,2,4]triazolo[4,3-b]pyridazine]",1.7
11,"FC(F)(F)c1nnc2ccc(N3CCN(Cc4cccc5c4OCO5)CC3)nn12 [Example 102, 6-[4-(1,3-benzodioxol-4-ylmethyl)piperazin-1-yl]-3-(trifluoromethyl)-[1,2,4]triazolo[4,3-b]pyridazine]",2.9
12,"FC(F)(F)c1nnc2ccc(N3CCN(Cc4cccc5nccnc45)CC3)nn12 [Example 103, 5-[[4-[3-(trifluoromethyl)[1,2,4]triazolo[4,3-b]pyridazin-6-yl]piperazin-1-yl]methyl]quinoxaline]",6.2
13,"FC(F)(F)c1nnc2ccc(N3CCN(Cc4cc[nH]c4)CC3)nn12 [Example 104, 6-[4-(1H-pyrrol-3-ylmethyl)piperazin-1-yl]-3-(trifluoromethyl)-[1,2,4]triazolo[4,3-b]pyridazine]",9.5
14,"Cc1ccc(Oc2cccc(CN3CCN(c4ccc5nnc(C(F)(F)F)n5n4)CC3)c2)cc1 [Example 105, 6-[4-[[3-(4-methylphenoxy)phenyl]methyl]piperazin-1-yl]-3-(trifluoromethyl)-[1,2,4]triazolo[4,3-b]pyridazine]",3.2
15,"CCCCOc1ccc(CN2CCN(c3ccc4nnc(C(F)(F)F)n4n3)CC2)cc1 [Example 109, 6-[4-[(4-butoxyphenyl)methyl]piperazin-1-yl]-3-(trifluoromethyl)-[1,2,4]triazolo[4,3-b]pyridazine]",7.2

# Next, values leading:
row,DC50 [µM],SMILES
1,4.4,"CN(C)c1ccc(CN2CCN(c3ccc4nnc(C(F)(F)F)n4n3)CC2)cc1 [Example 106, N,N-dimethyl-4-[[4-[3-(trifluoromethyl)-[1,2,4]triazolo[4,3-b]pyridazin-6-yl]piperazin-1-yl]methyl]aniline]"
2,7.2,"CC(=O)Nc1ccc(CN2CCN(c3ccc4nnc(C(F)(F)F)n4n3)CC2)cc1 [Example 107, N-[4-[[4-[3-(trifluoromethyl)-[1,2,4]triazolo[4,3-b]pyridazin-6-yl]piperazin-1-yl]methyl]phenyl]acetamide]"
3,2.3,"CCOc1ccc(CN2CCN(c3ccc4nnc(C(F)(F)F)n4n3)CC2)cc1 [Example 108, 6-[4-[(4-ethoxyphenyl)methyl]piperazin-1-yl]-3-(trifluoromethyl)-[1,2,4]triazolo[4,3-b]pyridazine]"
4,0.77,"O=[N+]([O-])c1ccc(CN2CCN(c3ccc4nnc(C(F)(F)F)n4n3)CC2)cc1 [Example 111, 6-[4-[(4-nitrophenyl)methyl]piperazin-1-yl]-3-(trifluoromethyl)-[1,2,4]triazolo[4,3-b]pyridazine]"
5,4.7,"CN(C)CCCOc1ccc(CN2CCN(c3ccc4nnc(C(F)(F)F)n4n3)CC2)cc1 [Example 112, N,N-dimethyl-3-[4-[[4-[3-(trifluoromethyl)-[1,2,4]triazolo[4,3-b]pyridazin-6-yl]piperazin-1-yl]methyl]phenoxy]propan-1-amine]"
6,7.1,"FC(F)(F)c1nnc2ccc(N3CCN(Cc4ccc(N5CCCC5)cc4)CC3)nn12 [Example 113, 6-[4-[(4-pyrrolidin-1-ylphenyl)methyl]piperazin-1-yl]-3-(trifluoromethyl)-[1,2,4]triazolo[4,3-b]pyridazine]"
7,6.5,"CC(C)(C)Oc1ccc(CN2CCN(c3ccc4nnc(C(F)(F)F)n4n3)CC2)cc1 [Example 114, 6-[4-[[4-[(2-methylpropan-2-yl)oxy]phenyl]methyl]piperazin-1-yl]-3-(trifluoromethyl)-[1,2,4]triazolo[4,3-b]pyridazine]"
8,2.5,"CC(C)Oc1ccc(CN2CCN(c3ccc4nnc(C(F)(F)F)n4n3)CC2)cc1 [Example 115, 6-[4-[(4-propan-2-yloxyphenyl)methyl]piperazin-1-yl]-3-(trifluoromethyl)-[1,2,4]triazolo[4,3-b]pyridazine]"
9,1.1,"FC(F)(F)Sc1cccc(CN2CCN(c3ccc4nnc(C(F)(F)F)n4n3)CC2)c1 [Example 116, 3-(trifluoromethyl)-6-[4-[[3-(trifluoromethylsulfanyl)phenyl]methyl]piperazin-1-yl]-[1,2,4]triazolo[4,3-b]pyridazine]"
10,1.7,"FC(F)(F)c1nnc2ccc(N3CCN(Cc4ccc(-c5cccnc5)cc4)CC3)nn12 [Example 117, 6-[4-[(4-pyridin-3-ylphenyl)methyl]piperazin-1-yl]-3-(trifluoromethyl)-[1,2,4]triazolo[4,3-b]pyridazine]"
11,0.3,"FC(F)(F)c1nnc2ccc(N3CCN(Cc4cccc(Br)c4)CC3)nn12 [Example 118, 6-[4-[(3-bromophenyl)methyl]piperazin-1-yl]-3-(trifluoromethyl)-[1,2,4]triazolo[4,3-b]pyridazine]"
12,2.2,"FC(F)(F)c1nnc2ccc(N3CCN(Cc4cccc(Oc5ccc(Cl)cc5)c4)CC3)nn12 [Example 119, 6-[4-[[3-(4-chlorophenoxy)phenyl]methyl]piperazin-1-yl]-3-(trifluoromethyl)-[1,2,4]triazolo[4,3-b]pyridazine]"
13,1.7,"COc1ccc(Oc2cccc(CN3CCN(c4ccc5nnc(C(F)(F)F)n5n4)CC3)c2)cc1 [Example 120, 6-[4-[[3-(4-methoxyphenoxy)phenyl]methyl]piperazin-1-yl]-3-(trifluoromethyl)-[1,2,4]triazolo[4,3-b]pyridazine]"
14,4.8,"COC(=O)c1ccc(CN2CCN(c3ccc4nnc(C(F)(F)F)n4n3)CC2)cc1 [Example 121, methyl 4-[[4-[3-(trifluoromethyl)-[1,2,4]triazolo[4,3-b]pyridazin-6-yl]piperazin-1-yl]methyl]benzoate]"
15,4.3,"CC(C)(C)c1ccc(CN2CCN(c3ccc4nnc(C(F)(F)F)n4n3)CC2)cc1 [Example 122, 6-[4-[(4-tert-butylphenyl)methyl]piperazin-1-yl]-3-(trifluoromethyl)-[1,2,4]triazolo[4,3-b]pyridazine]"
